Experimental data from patent US9572799B2, “Pyrazolopyridine derivatives for use in the treatment of bladder cancer” (SANOFI, priority 2013, dated 2017).

How the values were obtained:
[1] = test system: bladder cancer tumour cells of TCC97-7 type carrying the Ser249Cys mutation of FGF receptor 3; experiment: Inhibition of serum-induced proliferation of TCC97-7 bladder cancer cells (cell-covered surface area, Incucyte); type: cell-based; details: 72 h, TCC97-7 cell line in the presence of serum, after 3 days
Experimental: Evaluation of the Capacity of the FGF-R Antagonists to Inhibit Serum-Induced Proliferation of Bladder Cancer Tumour Cells of TCC97-7 Type Carrying the Ser249Cys Mutation of FGF Receptor 3
To do this, 2000 cells are seeded in the morning in 50 μl of complete medium (Ham-F/12, 1% FCS, 2 mM glutamine, non-essential amino acids, sodium pyruvate, 1% insulin/transferrin/selenium, hydrocortisone). In the evening, 50 μl of the various compounds are added at 2 or 20 μM after dilution in complete culture medium in order to obtain final concentrations of 1 or 10 μM. After 3 days, cell proliferation is evaluated by measuring the cell-covered surface area of a well of a 96 well plate. This surface area is measured using an Incucyte apparatus (Essen BioScience). The percentage inhibition of the cell proliferation is calculated by considering the surface area occupied by the TCC97-7 cells cultured in the absence of FGF-R antagonists to be 0% inhibition. 100% inhibition would correspond to a well no longer containing cells.
Thus, compounds 1 to 24 are capable of inhibiting TCC97-7 cell proliferation by more than 20% at the dose of 1 or 10 μM. (Table No. 2).

[2] = test system: TCC97-7 bladder cancer cells carrying the Ser249Cys mutation of FGF-R3; experiment: Reduction of intracellular ATP content of TCC97-7 cells in serum-supplemented medium (Cell Titer-Glo); type: cell-based; details: 72 h, TCC97-7 cells cultured in the presence of serum, after 3 days, read-out: Inhibition of the amount of intracellular ATP (%)
Experimental: Evaluation of the Capacity of FGF-R Antagonists to Reduce the ATP Content of TCC97-7 Bladder Cancer Cells Carrying the Ser249Cys Mutation of FGF-R3, Cultured in a Serum-Supplemented Medium
To do this, 3000 cells are seeded in 50 μl of complete medium (Ham-F/12, 1% FCS, 2 mM glutamine, non-essential amino acids, sodium pyruvate, 1% insulin/transferrin/selenium, hydrocortisone). 16 hours later, 50 μl of the various compounds are added at 2 and 20 μM after dilution in complete culture medium in order to obtain final concentrations of 1 and 10 μM. After 3 days, the ATP content of the cells is measured using the Cell Titer-Glo® Luminescent Cell Viability Assay kit (Promega, France) according to the supplier's recommendations. The percentage inhibition of the amount of intracellular ATP is calculated by considering the ATP content of the cells cultured in the absence of antagonist to be 0% inhibition. 100% inhibition would correspond to a well in which the ATP content is zero.
Thus, compounds 1 to 24 are capable of inhibiting the amount of intracellular ATP in TCC97-7 cells by more than 20% at the dose of 1 or 10 μM (Table No. 3).

| melting point [°C] | SMILES | inhibition at 1 µM [1] [%] | inhibition at 10 µM [1] [%] | inhibition at 1 µM [2] [%] | inhibition at 10 µM [2] [%] |
| --- | --- | --- | --- | --- | --- |
| 95 | CN(C)c1cccc(-c2cc(C(F)(F)F)c3c(-c4ccccc4)nn(C)c3n2)c1 [compound 3, Dimethyl-[3-(1-methyl-3-phenyl-4-trifluoromethyl-1H-pyrazolo[3,4-b]pyridin-6-yl)phenyl]amine] | -32.3 | 40 | 21.3 | 47.7 |
| 380 | O=c1[nH]c2ccc(-c3cc(C(F)(F)F)c4c(-c5ccccc5)n[nH]c4n3)cc2[nH]1 [compound 15, 5-(3-Phenyl-4-trifluoromethyl-1H-pyrazolo[3,4-b]pyridin-6-yl)-1,3-dihydrobenzoimidazol-2-one] | -3 | 29 | -11 | 19 |
